{"source": "patent US20250367114A1", "about": "“INHALABLE COMPOSITION FOR ENHANCING ALERTNESS AND VITALITY AND DEVICE FOR SUPPLYING THE INHALABLE COMPOSITION” (KT&G CORPORATION, priority 2024, published 2025)", "tested_on": "C57BL/6 mice", "assay": "general behavioral experiments (LABORAS) after oral administration of caffeine", "type": "in vivo", "details": "for Distance (distance of movement) / Number of times (number of movements) / Speed (speed of movement) / Time (time of movement): measured for an hour", "experimental": "The experimental animals were C57BL/6 mice (male, 10 weeks old) purchased from KOATECH after receiving approval from the Institutional Animal Care and Use Committee (IACUC). The experimental animals were acclimatized for a week in the breeding room of the bio-efficacy evaluation center of KT&G (temperature 23±2° C., humidity 50±10%, light-dark cycle 12 hours) and then used in the experiments.\nCaffeine was dissolved in a 0.9% saline solution and administered orally to the mice by using Zonde at a dosage of 10 ml/kg, and then general behavioral experiments were conducted. Samples of experimental examples 1 to 3 below were orally administered to the C57BL/6 mice, and then the number of movements, the speed of movement (mm/s), the distance of movement (meter), and the time of movement (sec) for an hour were measured using a LABORAS behavioral device.\nExperimental example 1 was a control group, in which only 10 ml/kg of a 0.9% saline solution was orally administered. In experimental example 2, caffeine was dissolved in a 0.9% saline solution at a dose of 5 mg/kg and orally administered by using Zonde. In experimental example 3, caffeine was dissolved in a 0.9% saline solution at a dose of 30 mg/kg and orally administered by using Zonde. With respect to each of experimental examples 1 to 3, the alertness effect of caffeine was verified through general behavioral experiments, and results thereof are shown in Table 1 below.", "key": {"[1]": {"details": "caffeine 5 mg/kg oral in 0.9% saline"}, "[2]": {"details": "caffeine 30 mg/kg oral in 0.9% saline"}}, "data": [{"compound": "Cn1c(=O)c2c(ncn2C)n(C)c1=O", "note": "[Experimental example 2, caffeine]", "values": [{"measurement": "alertness effect (in words)", "setting": "caffeine 5 mg/kg oral", "value": "almost no effect"}, {"measurement": "Distance (distance of movement)", "setting": "[1]", "value": "20.48 ± 3.27", "unit": "meter"}, {"measurement": "Number of times (number of movements)", "setting": "[1]", "value": "532.5 ± 66.33", "unit": "count"}, {"measurement": "Speed (speed of movement)", "setting": "[1]", "value": "5.689 ± 0.91", "unit": "mm/s"}, {"measurement": "Time (time of movement)", "setting": "[1]", "value": "405.65 ± 21.89", "unit": "s"}, {"measurement": "alertness effect (in words)", "setting": "caffeine 30 mg/kg oral", "value": "alertness effect was observed"}, {"measurement": "Distance (distance of movement)", "setting": "[2]", "value": "33.59 ± 7.85", "unit": "meter"}, {"measurement": "Number of times (number of movements)", "setting": "[2]", "value": "1034.5 ± 220.05", "unit": "count"}, {"measurement": "Speed (speed of movement)", "setting": "[2]", "value": "9.33 ± 2.18", "unit": "mm/s"}, {"measurement": "Time (time of movement)", "setting": "[2]", "value": "884.15 ± 154.86", "unit": "s"}]}]}
